According to patent publication US10927115B2, “Substituted heterocycles for targeting Hsp90” (Duke University, priority 2012, dated 2021):

Experiments:
MDA-MB-468 tumor = assay: In vivo detection of compound 10 with optical spectroscopy; parameters: species or system SCID mice; conditions: 1 mg via tail vein, FIG. 15
Experimental: MDA-MB-468 tumor cells (1 M cells/mouse) were injected to the flank of SCID mice. Three weeks later, when tumor size reached 5-8 mm in diameter, the experiment was performed. Baseline autofluorescence levels were measured for tumor and normal tissues (skin adjacent to tumor). 1 mg or 0.5 mg of compound 10 was injected via tail vein. After drug injection, fluorescence signals were measured with the optical spectroscopy (˜30 min). Two days after injection, measurement of fluorescence signal was repeated.
Normal: Normal skin adjacent to tumor. All data are normalized to peak fluorescence intensity to compare fluorescence line shapes. […] Measurements were made within a few minutes of injection.

MDA MB 468 xenografts = assay: Fluorescence imaging of HSP90 expression in mouse xenografts (IVIS imager, plate reader); type: in vivo, Mice
Experimental: Mice with MDA MB 468 xenografts were injected with either 0.1, 0.5 or 1 mg of compound 10 intravenously. The animals were then immediately imaged in real time in an IVIS Kinetic imager (Caliper Life Science) for the presence of fluorescence at 465ex/520em. After two hours the tumors were excised and examined for the presence of compound 10.
Red image (false, 1 vs. 2) clearly demarks the tumor over background signal (appearing very dark gray in FIG. 14A).
Measurements were made in the IVIS imager or by preparing cells extracts from the tumors and measuring their fluorescence in a microtitre plate reader.

MCF7 cells = assay: Compound 10 fluorescence in MCF7 cells with anti-Hsp90 antibody or competing compound 5; type: cell-based; conditions: FIG. 6B
Experimental: In FIG. 6B, the compound was added in the presence of an antibody to Hsp90. […] DAPI (blue) highlights the nucleus of the cell. In FIG. 6 the green staining from compound 10 fluorescence appears white, while blue from the DAPI-stained nuclei appears gray.

[1] = test system: MDA-MB-468 tumor-bearing mice; assay: Biodistribution of compound 10 in mouse xenografts by flow cytometry; type: in vivo, NOD/SCID mice; conditions: 1 mg/mouse intraperitoneally, 2, 24, 48 or 72 hours
Experimental: MDA-MB-468 cells (5M cells/mouse) were injected to the flank of NOD/SCID mice. When tumors reached 5-10 mm in diameter, tumor-bearing mice were intraperitoneally injected with compound 10 (1 mg/mouse, in 100 μL of DMSO). After 2, 24, 48 or 72 hours, mice were sacrificed and tumors, livers and spleens were harvested. Tumors and livers were digested with collagenase/hyarulonidase/DNase for 1 hour at 37° C., and ficolled to eliminate debris and dead cells, and then washed. Cells in tumor digest were labeled with anti-mouse CD45-biotin+anti-H2-kD-biotin for 15 min on ice, and then 15 min with streptavidin-APC. Tumor cells were analyzed by flow cytometry to detect fluorescence from compound 10. Mouse lineage negative cells were gated for the analysis. Spleen were minced and passed through the strainer. Splenocytes, liver cells and tumor cells were analyzed by flow cytometry to detect fluorescence from compound 10.
Spleen were minced and passed through a strainer to get rid of aggregations/membranous tissue. Cells were stained with violet viability dye. Viable cells were analyzed for their compound 10 uptake.
Liver tissues were minced with blades and digested with triple enzyme buffer (collagenase III, hyarulonidase, DNAse) for 1 h at 37° C., and cells were passed through a strainer to get rid of aggregations. Cells were stained with violet viability dye. Viable cells were analyzed for their compound 10 uptake.
Tumor tissues were minced with blades and digested with triple enzyme buffer (collagenase III, hyarulonidase, DNAse) for 1 h at 37° C., and cells were passed through a strainer to get rid of aggregations. Cells were stained with anti-mouse CD45-biotin/anti-H2-kd-biotin and then streptavidin-APC and violet viability dye. Viable and CD45/H2-kd negative cells were analyzed for their compound 10 uptake.

xenografts (MDA-MB 468) = assay: Confocal analysis of xenograft tissue slices after IP injection; type: in vivo; conditions: harvested one hour after injection (IP), FIG. 8
Experimental: Tissue slices were prepared from the harvested xenografts and prepared for analysis by confocal analysis. […] A tissue slice from the control experiment is shown in which the animal was injected with vehicle alone (DMSO). Only background fluorescence is detected. In FIG. 8 the green staining from compound 10 fluorescence appears white or light gray, while blue from the DAPI-stained nuclei appears dark gray.

[2] = test system: TZM-bl (Hela derived) cells infected with NL4.3 virus (HIV-1); assay: Confocal microscopy of cells infected with HIV-1 treated with compound 10; type: cell-based
Experimental: TZM-bl (Hela derived) cells were added on glass coverslips in 24-well plates (1×10^5 cells/well) and were allowed to attach to cover slips overnight. For infection NL4.3 virus (HIV-1) was added to medium to achieve 10 ng/mL P24 protein concentration along with DEAE dextran at a final concentration 15 μg/mL. After 48 hours of infection, compound 10 was added to the medium and incubated for 1 hour at 37° C. Later the infected cells were washed twice with phosphate-buffered saline (PBS) and fixed for 20 min in 4% paraformaldehyde. They were washed twice with PBS and permeabilized for 30 min in 50% ice cold methanol on ice. Blocking was carried out using 1% FBS for 30 minutes at room temperature after two washes with PBS. Cells were then incubated for 2 hours at room temperature with antibody against HIV-1 capsid protein P24 at 1:100 dilutions in PBS. The antibody was obtained from the AIDS Reference and Reagent Program (HIV-1 p24 Monoclonal Antibody-183-H12-5C, Catalogue number: 3537). The cells were washed three times in PBS before and after 1 h of incubation with anti-mouse Texas Red secondary antibody (1:250). (Texas Red® Goat Anti-Mouse IgG (H+L), catalogue number: T682, Life technologies). […]

MDA-MB 468 = assay: Fluorescence microscopy uptake of probe in tumor cells; type: cell-based, human; conditions: micromolar concentrations, FIG. 4
Source text: (§1) In one experiment, the fluorescein compound 10 was applied at micromolar concentrations to four types of tumor cells. […] The probe (10) fluoresces to give green staining in images obtained; in FIG. 4, the green staining appears white.

Huh7 cell line = assay: as above; type: cell-based, human; conditions: micromolar concentrations; Huh7, non-metastatic; FIG. 4
Source text: as §1

BT474 = assay: as above; type: cell-based, human; conditions: micromolar concentrations, FIG. 4
Source text: as §1

MCF-7 = assay: as above; type: cell-based, human; conditions: micromolar concentrations, FIG. 4
Source text: as §1

Cc1nn(-c2ccc(C(N)=O)c(NCCCOCCOCCOCCOCCOCCCNC(=S)Nc3ccc4c(c3)C(=O)OC43c4ccc(O)cc4Oc4cc(O)ccc43)c2)c2c1C(=O)CC(C)(C)C2 [Compound 10, 2-((1-((3′,6′-dihydroxy-3-oxo-3H-spiro[isobenzofuran-1,9′-xanthen]-5-yl)amino)-1-thioxo-6,9,12,15,18-pentaoxa-2-azahenicosan-21-yl)amino)-4-(3,6,6-trimethyl-4-oxo-4,5,6,7-tetrahydro-1H-indazol-1-yl)benzamide]
fluorescence signal in tumor, Day 3 (MDA-MB-468 tumor): still retains FITC signal | fluorescence signal at normal site, Day 3 (MDA-MB-468 tumor; normal skin adjacent to tumor): declined to pre-injection baseline level | fluorescence signal, normal skin versus tumor, Day 0 (MDA-MB-468 tumor; within a few minutes of injection): Normal shows higher signal than tumor | accumulation in tumors isolated from mice (MDA MB 468 xenografts; indicated doses, IVIS imager or tumor cell extracts in plate reader, FIG. 14B, 14C): accumulates selectively within the tumor mass in a dose dependent manner | accumulation in the xenograft, real time imaging (MDA MB 468 xenografts; tail vein injection, 465ex/520em, FIG. 14A): rapid accumulation | localisation of the probe in the presence of an antibody to Hsp90 (MCF7 cells): accumulate at the membrane | accumulation in splenocytes ([1]; FIG. 10A): little accumulation | accumulation in liver cells ([1]; FIG. 10B): little accumulation | accumulation in tumor cells ([1]; FIG. 10C): high degree of accumulation | presence of compound in tumor cells of xenograft (xenografts (MDA-MB 468)): detected within the tumor cells | detection of HIV infected cells ([2]; 48 hours of infection, 1 hour at 37° C., FIG. 16): can be used to detect cells infected with HIV | recognition of uninfected cells ([2]; FIG. 16 panel D): do not recognize uninfected cells | uptake of the probe (MDA-MB 468): take up the probe readily | uptake of the probe (Huh7 cell line): does not absorb the probe | uptake of the probe (BT474): take up the probe readily | uptake of the probe (MCF-7): take up the probe readily
